Article PMC3433420 (PLoS ONE, 2012)
Non-standard residues stand in square brackets, D forms with d. Residues, ends and D or L forms follow the SMILES beside them. No end group written: not given here. pY = N[C@@H](Cc1ccc(OP(=O)(O)O)cc1)C(=O)O

Legend:
[1] = target: PIK3R2-NC tandem SH2 domains (Homo sapiens, UniProt O00459); experiment: FP saturation binding assay
RASA1-N SH2 domain = target: T1, RASA1-N SH2 domain (Homo sapiens, UniProt P20936); experiment: FP saturation binding assay
T1 sequence (P20936 181-272 limits assumed): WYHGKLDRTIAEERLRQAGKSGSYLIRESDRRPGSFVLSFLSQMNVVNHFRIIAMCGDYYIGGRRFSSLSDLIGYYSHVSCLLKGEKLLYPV

SH2 and PTB domains = experiment: Sum of relative binding free energies (ΔΔG) from FP KDs, relative to 20 µM threshold; design: species or system human;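 unit kcal/mol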; conditions: summed over the receptor's phosphopeptides
Protocol: In order to further define and classify commonalities and differences among the ErbB family, the relative binding free energy (FE) of each SH2 domain was summed across all phosphosites on each receptor relative to the assay detection threshold of 20 µM according to Equation (3): [drawing 10] (3)

Chain of PIK3R2-NC tandem SH2 domains (O00459 330-716 limits assumed): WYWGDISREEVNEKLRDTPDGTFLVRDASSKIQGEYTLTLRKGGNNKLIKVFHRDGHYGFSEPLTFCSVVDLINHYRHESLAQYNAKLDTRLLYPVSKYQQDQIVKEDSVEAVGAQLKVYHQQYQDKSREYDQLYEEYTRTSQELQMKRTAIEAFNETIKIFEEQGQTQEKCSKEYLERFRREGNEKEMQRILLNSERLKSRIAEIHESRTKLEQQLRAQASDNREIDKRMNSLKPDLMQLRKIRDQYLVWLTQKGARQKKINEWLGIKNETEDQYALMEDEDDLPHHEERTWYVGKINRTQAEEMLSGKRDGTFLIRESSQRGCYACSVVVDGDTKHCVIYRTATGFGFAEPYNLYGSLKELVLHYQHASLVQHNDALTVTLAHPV

## CSCC[C@H](NC(=O)[C@H](Cc1ccc(OP(=O)(O)O)cc1)NC(=O)[C@H](CCC(=O)O)NC(=O)[C@H](Cc1ccc(O)cc1)NC(=O)[C@H](CC(=O)O)NC(=O)[C@@H](N)CCC(=O)O)C(=O)N[C@@H](CC(N)=O)C(=O)N[C@@H](CCCNC(=N)N)C(=O)N[C@@H](CCC(N)=O)C(=O)N[C@@H](CCCNC(=N)N)C(=O)N[C@@H](CC(=O)O)C(=O)NCC(=O)N[C@@H](CC(=O)O)C(=O)O [ErbB3 1262 13-mer] (HELM PEPTIDE1{E.D.Y.E.[O=C([C@H](Cc1ccc(OP(=O)(O)O)cc1)N[*:1])[*:2]].M.N.R.Q.R.D.G.D}$$$$V2.0)
[1]
  Kd: 18.1 µM
RASA1-N SH2 domain
  Kd: 9.06 µM

## CC(C)C[C@H](NC(=O)[C@H](CCCNC(=N)N)NC(=O)[C@H](C)NC(=O)[C@H](Cc1ccc(OP(=O)(O)O)cc1)NC(=O)[C@H](Cc1c[nH]cn1)NC(=O)[C@@H](NC(=O)[C@H](Cc1c[nH]cn1)NC(=O)[C@@H]1CCCN1)C(C)C)C(=O)N[C@@H](CCCCN)C(=O)N[C@H](C(=O)N[C@@H](CC(C)C)C(=O)N[C@@H](CCCNC(=N)N)C(=O)N[C@@H](CC(=O)O)C(=O)O)[C@@H](C)O [ErbB3pY1307] (HELM PEPTIDE1{P.H.V.H.[O=C([C@H](Cc1ccc(OP(=O)(O)O)cc1)N[*:1])[*:2]].A.R.L.K.T.L.R.D}$$$$V2.0)
RASA1-N SH2 domain
  Kd: 1.88 µM

## ErbB3 (SEQG[pY]EEMRAFQD)
SH2 and PTB domains; domain ABL1
  Sum free energies (ΔΔG): 0.48
SH2 and PTB domains; domain ABL2
  Sum free energies (ΔΔG): 1.81
SH2 and PTB domains; domain BCAR3
  Sum free energies (ΔΔG): 1.81
SH2 and PTB domains; domain BLK
  Sum free energies (ΔΔG): 4.66
SH2 and PTB domains; domain BLNK
  Sum free energies (ΔΔG): 1.99
SH2 and PTB domains; domain BMX
  Sum free energies (ΔΔG): 0.00
SH2 and PTB domains; domain BTK
  Sum free energies (ΔΔG): 0.53
SH2 and PTB domains; domain CRK
  Sum free energies (ΔΔG): 2.18
SH2 and PTB domains; domain CRKL
  Sum free energies (ΔΔG): 0.00
SH2 and PTB domains; domain DAPP1
  Sum free energies (ΔΔG): 0.00
SH2 and PTB domains; domain FER
  Sum free energies (ΔΔG): 1.84
SH2 and PTB domains; domain FES
  Sum free energies (ΔΔG): 2.60
SH2 and PTB domains; domain FGR
  Sum free energies (ΔΔG): 2.50
SH2 and PTB domains; domain GRAP2
  Sum free energies (ΔΔG): 0.40
SH2 and PTB domains; domain GRB2
  Sum free energies (ΔΔG): 0.00
SH2 and PTB domains; domain GRB7
  Sum free energies (ΔΔG): 8.74
SH2 and PTB domains; domain GRB10
  Sum free energies (ΔΔG): 0.00
SH2 and PTB domains; domain GRB14
  Sum free energies (ΔΔG): 0.00
SH2 and PTB domains; domain HCK
  Sum free energies (ΔΔG): 5.34
SH2 and PTB domains; domain HSH2D
  Sum free energies (ΔΔG): 2.34
SH2 and PTB domains; domain INPPL1
  Sum free energies (ΔΔG): 1.51
SH2 and PTB domains; domain ITK
  Sum free energies (ΔΔG): 1.44
SH2 and PTB domains; domain LCK
  Sum free energies (ΔΔG): 9.34
SH2 and PTB domains; domain LCP2
  Sum free energies (ΔΔG): 1.08
SH2 and PTB domains; domain LYN
  Sum free energies (ΔΔG): 6.66
SH2 and PTB domains; domain MATK
  Sum free energies (ΔΔG): 2.34
SH2 and PTB domains; domain NCK1
  Sum free energies (ΔΔG): 1.97
SH2 and PTB domains; domain NCK2
  Sum free energies (ΔΔG): 2.78
SH2 and PTB domains; domain PIK3R1-C
  Sum free energies (ΔΔG): 15.79
SH2 and PTB domains; domain PIK3R1-N
  Sum free energies (ΔΔG): 15.42
SH2 and PTB domains; domain PIK3R1-NC
  Sum free energies (ΔΔG): 18.21
SH2 and PTB domains; domain PIK3R2-C
  Sum free energies (ΔΔG): 4.66
SH2 and PTB domains; domain PIK3R2-N
  Sum free energies (ΔΔG): 15.58
SH2 and PTB domains; domain PIK3R2-NC
  Sum free energies (ΔΔG): 17.40
SH2 and PTB domains; domain PIK3R3-C
  Sum free energies (ΔΔG): 14.57
SH2 and PTB domains; domain PIK3R3-N
  Sum free energies (ΔΔG): 18.45
SH2 and PTB domains; domain PIK3R3-NC
  Sum free energies (ΔΔG): 23.70
SH2 and PTB domains; domain PLCG1-C
  Sum free energies (ΔΔG): 12.45
SH2 and PTB domains; domain PLCG1-N
  Sum free energies (ΔΔG): 2.23
SH2 and PTB domains; domain PLCG1-NC
  Sum free energies (ΔΔG): 12.83
SH2 and PTB domains; domain PLCG2-N
  Sum free energies (ΔΔG): 0.60
SH2 and PTB domains; domain PLCG2-NC
  Sum free energies (ΔΔG): 3.76
SH2 and PTB domains; domain PTK6
  Sum free energies (ΔΔG): 7.16
SH2 and PTB domains; domain PTPN6-C
  Sum free energies (ΔΔG): 0.00
SH2 and PTB domains; domain PTPN6-NC
  Sum free energies (ΔΔG): 0.00
SH2 and PTB domains; domain PTPN11-C
  Sum free energies (ΔΔG): 0.00
SH2 and PTB domains; domain PTPN11-N
  Sum free energies (ΔΔG): 4.57
SH2 and PTB domains; domain PTPN11-NC
  Sum free energies (ΔΔG): 4.70
SH2 and PTB domains; domain RASA1-C
  Sum free energies (ΔΔG): 0.68
SH2 and PTB domains; domain RASA1-N
  Sum free energies (ΔΔG): 11.64
SH2 and PTB domains; domain RASA1-NC
  Sum free energies (ΔΔG): 10.86
SH2 and PTB domains; domain SH2B2
  Sum free energies (ΔΔG): 0.53
SH2 and PTB domains; domain SH2B3
  Sum free energies (ΔΔG): 5.05
SH2 and PTB domains; domain SH2B
  Sum free energies (ΔΔG): 1.60
SH2 and PTB domains; domain SH2D1A
  Sum free energies (ΔΔG): 6.64
SH2 and PTB domains; domain SH2D1B
  Sum free energies (ΔΔG): 6.98
SH2 and PTB domains; domain SH2D2A
  Sum free energies (ΔΔG): 10.39
SH2 and PTB domains; domain SH2D3A
  Sum free energies (ΔΔG): 0.00
SH2 and PTB domains; domain SH2D3C
  Sum free energies (ΔΔG): 5.13
SH2 and PTB domains; domain SH3BP2
  Sum free energies (ΔΔG): 1.31
SH2 and PTB domains; domain SHB
  Sum free energies (ΔΔG): 1.08
SH2 and PTB domains; domain SHC1-PTB
  Sum free energies (ΔΔG): 8.01
SH2 and PTB domains; domain SHC1
  Sum free energies (ΔΔG): 3.41
SH2 and PTB domains; domain SHC2-PTB
  Sum free energies (ΔΔG): 4.78
SH2 and PTB domains; domain SHC3
  Sum free energies (ΔΔG): 0.95
SH2 and PTB domains; domain SHC4
  Sum free energies (ΔΔG): 1.50
SH2 and PTB domains; domain SHD
  Sum free energies (ΔΔG): 1.64
SH2 and PTB domains; domain SHE
  Sum free energies (ΔΔG): 0.00
SH2 and PTB domains; domain SHF
  Sum free energies (ΔΔG): 0.00
SH2 and PTB domains; domain SLA2
  Sum free energies (ΔΔG): 4.59
SH2 and PTB domains; domain SLA
  Sum free energies (ΔΔG): 0.46
SH2 and PTB domains; domain SOCS1
  Sum free energies (ΔΔG): 0.00
SH2 and PTB domains; domain SOCS2
  Sum free energies (ΔΔG): 2.96
SH2 and PTB domains; domain SOCS3
  Sum free energies (ΔΔG): 4.06
SH2 and PTB domains; domain SOCS5
  Sum free energies (ΔΔG): 6.74
SH2 and PTB domains; domain SOCS6
  Sum free energies (ΔΔG): 6.61
SH2 and PTB domains; domain SRC
  Sum free energies (ΔΔG): 9.70
SH2 and PTB domains; domain STAP1
  Sum free energies (ΔΔG): 1.44
SH2 and PTB domains; domain SUPT6H
  Sum free energies (ΔΔG): 0.00
SH2 and PTB domains; domain SYK-C
  Sum free energies (ΔΔG): 0.00
SH2 and PTB domains; domain SYK-N
  Sum free energies (ΔΔG): 0.00
SH2 and PTB domains; domain SYK-NC
  Sum free energies (ΔΔG): 2.08
SH2 and PTB domains; domain TEC
  Sum free energies (ΔΔG): 0.70
SH2 and PTB domains; domain TENC1
  Sum free energies (ΔΔG): 3.35
SH2 and PTB domains; domain TNS1
  Sum free energies (ΔΔG): 3.92
SH2 and PTB domains; domain TNS3
  Sum free energies (ΔΔG): 4.07
SH2 and PTB domains; domain TNS4
  Sum free energies (ΔΔG): 0.67
SH2 and PTB domains; domain TXK
  Sum free energies (ΔΔG): 1.88
SH2 and PTB domains; domain VAV1
  Sum free energies (ΔΔG): 2.95
SH2 and PTB domains; domain VAV2
  Sum free energies (ΔΔG): 5.08
SH2 and PTB domains; domain VAV3
  Sum free energies (ΔΔG): 5.15
SH2 and PTB domains; domain YES1
  Sum free energies (ΔΔG): 10.32
SH2 and PTB domains; domain ZAP70-C
  Sum free energies (ΔΔG): 0.57
SH2 and PTB domains; domain ZAP70-N
  Sum free energies (ΔΔG): 0.00
SH2 and PTB domains; domain ZAP70-NC
  Sum free energies (ΔΔG): 6.20

## FDNLYYWDQDPPD [ErbB2 Y1221 (non-phospho)]
RASA1-N SH2 domain
  Kd: 3.69 µM
